Measured values from PubChem BioAssay AID1259407 (Chemical Carcinogenesis Research Information System (CCRIS), 2018).
The source made the active and inactive calls. The rule behind the calls is not given here.

Test system: CCRIS mutagenicity, Ames/micronucleus/aberration tests
Assay: CCRIS mutagenicity studies

O=S1OCC2C(CO1)C1(Cl)C(Cl)=C(Cl)C2(Cl)C1(Cl)Cl (configuration not stated)
mutagenic call (End Point: IN VITRO CHROMOSOMAL ABERRATIONS, Test System: HUMAN PERIPHERAL BLOOD LYMPHOCYTES, Metabolic Activation: NONE): active; positive (structural changes) | mutagenic call (End Point: In vitro chromosomal aberrations, Test System: Human (one male) lymphocytes, Metabolic Activation: None): inactive; negative. (200 ug/ml was toxic to the cells.) | mutagenic call (End Point: In vitro chromosomal aberrations, Test System: Human (one male) lymphocytes, Metabolic Activation: Rat, Liver, S-9): inactive; negative. (200 ug/ml was toxic to the cells.) | mutagenic call (End Point: In vitro chromosomal aberrations, Test System: Human lymphocytes, Metabolic Activation: None): active; positive (structural changes and ploidy) | mutagenic call (Test System: AMES SALMONELLA TYPHIMURIUM, Strain/Indicator: TA97A, Metabolic Activation: NONE, Method: PREINCUBATION): active; positive | mutagenic call (Test System: AMES SALMONELLA TYPHIMURIUM, Strain/Indicator: TA97A, Metabolic Activation: NONE, Method: STANDARD PLATE): inactive; negative | mutagenic call (Test System: AMES SALMONELLA TYPHIMURIUM, Strain/Indicator: TA97A, Metabolic Activation: RAT, CECAL CELL FREE EXTRACT, Method: STANDARD PLATE): inactive; negative | mutagenic call (Test System: AMES SALMONELLA TYPHIMURIUM, Strain/Indicator: TA97A, Metabolic Activation: RAT, LIVER, S-9, AROCLOR 1254, Method: STANDARD PLATE): inactive; negative | mutagenic call (Test System: AMES SALMONELLA TYPHIMURIUM, Strain/Indicator: TA97A, Metabolic Activation: RAT, LIVER, S-9, PHENOBARBITAL, Method: PREINCUBATION): active; positive | mutagenic call (Test System: AMES SALMONELLA TYPHIMURIUM, Strain/Indicator: TA97A, Metabolic Activation: RAT, LIVER, S-9, PHENOBARBITAL, Method: STANDARD PLATE): inactive; negative | mutagenic call (Test System: AMES SALMONELLA TYPHIMURIUM, Strain/Indicator: TA98, Metabolic Activation: HAMSTER, LIVER, S-9, AROCLOR 1254 (10%), Method: PREINCUBATION): inactive; negative | mutagenic call (Test System: AMES SALMONELLA TYPHIMURIUM, Strain/Indicator: TA98, Metabolic Activation: NONE, Method: PREINCUBATION): inactive; negative | mutagenic call (Test System: AMES SALMONELLA TYPHIMURIUM, Strain/Indicator: TA98, Metabolic Activation: NONE, Method: STANDARD PLATE): inactive; negative | mutagenic call (Test System: AMES SALMONELLA TYPHIMURIUM, Strain/Indicator: TA98, Metabolic Activation: RAT, CECAL CELL FREE EXTRACT, Method: STANDARD PLATE): inactive; negative | mutagenic call (Test System: AMES SALMONELLA TYPHIMURIUM, Strain/Indicator: TA98, Metabolic Activation: RAT, LIVER, S-9, AROCLOR 1254 (10%), Method: PREINCUBATION): inactive; negative | mutagenic call (Test System: AMES SALMONELLA TYPHIMURIUM, Strain/Indicator: TA98, Metabolic Activation: RAT, LIVER, S-9, AROCLOR 1254, Method: STANDARD PLATE): inactive; negative | mutagenic call (Test System: AMES SALMONELLA TYPHIMURIUM, Strain/Indicator: TA98, Metabolic Activation: RAT, LIVER, S-9, PHENOBARBITAL, Method: PREINCUBATION): inactive; negative | mutagenic call (Test System: AMES SALMONELLA TYPHIMURIUM, Strain/Indicator: TA98, Metabolic Activation: RAT, LIVER, S-9, PHENOBARBITAL, Method: STANDARD PLATE): inactive; negative | mutagenic call (Test System: AMES SALMONELLA TYPHIMURIUM, Strain/Indicator: TA100, Metabolic Activation: HAMSTER, LIVER, S-9, AROCLOR 1254 (10%), Method: PREINCUBATION): inactive; negative | mutagenic call (Test System: AMES SALMONELLA TYPHIMURIUM, Strain/Indicator: TA100, Metabolic Activation: NONE, Method: PREINCUBATION): inactive; negative | mutagenic call (Test System: AMES SALMONELLA TYPHIMURIUM, Strain/Indicator: TA100, Metabolic Activation: NONE, Method: STANDARD PLATE): inactive; negative | mutagenic call (Test System: AMES SALMONELLA TYPHIMURIUM, Strain/Indicator: TA100, Metabolic Activation: RAT, CECAL CELL FREE EXTRACT, Method: STANDARD PLATE): inactive; negative | mutagenic call (Test System: AMES SALMONELLA TYPHIMURIUM, Strain/Indicator: TA100, Metabolic Activation: RAT, LIVER, S-9, AROCLOR 1254 (10%), Method: PREINCUBATION): inactive; negative | mutagenic call (Test System: AMES SALMONELLA TYPHIMURIUM, Strain/Indicator: TA100, Metabolic Activation: RAT, LIVER, S-9, AROCLOR 1254, Method: STANDARD PLATE): inactive; negative | mutagenic call (Test System: AMES SALMONELLA TYPHIMURIUM, Strain/Indicator: TA100, Metabolic Activation: RAT, LIVER, S-9, PHENOBARBITAL, Method: PREINCUBATION): inactive; negative | mutagenic call (Test System: AMES SALMONELLA TYPHIMURIUM, Strain/Indicator: TA100, Metabolic Activation: RAT, LIVER, S-9, PHENOBARBITAL, Method: STANDARD PLATE): inactive; negative | mutagenic call (Test System: AMES SALMONELLA TYPHIMURIUM, Strain/Indicator: TA102, Metabolic Activation: NONE, Method: STANDARD PLATE): inactive; negative | mutagenic call (Test System: AMES SALMONELLA TYPHIMURIUM, Strain/Indicator: TA102, Metabolic Activation: RAT, LIVER, S-9, PHENOBARBITAL, Method: PREINCUBATION): inactive; negative | mutagenic call (Test System: AMES SALMONELLA TYPHIMURIUM, Strain/Indicator: TA102, Metabolic Activation: RAT, LIVER, S-9, PHENOBARBITAL, Method: STANDARD PLATE): inactive; negative | mutagenic call (Test System: AMES SALMONELLA TYPHIMURIUM, Strain/Indicator: TA1535, Metabolic Activation: HAMSTER, LIVER, S-9, AROCLOR 1254 (10%), Method: PREINCUBATION): inactive; negative | mutagenic call (Test System: AMES SALMONELLA TYPHIMURIUM, Strain/Indicator: TA1535, Metabolic Activation: NONE, Method: PREINCUBATION): inactive; negative | mutagenic call (Test System: AMES SALMONELLA TYPHIMURIUM, Strain/Indicator: TA1535, Metabolic Activation: RAT, LIVER, S-9, AROCLOR 1254 (10%), Method: PREINCUBATION): inactive; negative | mutagenic call (Test System: AMES SALMONELLA TYPHIMURIUM, Strain/Indicator: TA1537, Metabolic Activation: HAMSTER, LIVER, S-9, AROCLOR 1254 (10%), Method: PREINCUBATION): inactive; negative | mutagenic call (Test System: AMES SALMONELLA TYPHIMURIUM, Strain/Indicator: TA1537, Metabolic Activation: NONE, Method: PREINCUBATION): inactive; negative | mutagenic call (Test System: AMES SALMONELLA TYPHIMURIUM, Strain/Indicator: TA1537, Metabolic Activation: RAT, LIVER, S-9, AROCLOR 1254 (10%), Method: PREINCUBATION): inactive; negative | mutagenic call (Test System: ESCHERICHIA COLI, Strain/Indicator: AB1157, Metabolic Activation: NONE, Method: PREINCUBATION): active; positive | mutagenic call (Test System: UDS Rat hepatocytes, Strain/Indicator: Primary hepatocytes. Thy incorp, Metabolic Activation: None, Method: Autoradiography): inactive; negative. (toxic at 51 ug/ml)
